Measured values from patent US5674490A, “Antibiotic GE1655 complex and its factors A, B, and C” (Gruppa Lepetit S.p.A., priority 1995, dated 1997).

Tested on: Candida albicans L145
Assay: Candida vaginitis in ovariectomized rats
Assay type: in vivo, ovariectomized female CD rats
Details: for Mean log10 cfu ± SD/sample: i.va. twice daily, after 3 days of treatment, GE1655 complex 10, miconazole 4 mg/rat per treat.
Description: The in vivo protective activity of the antibiotic GE1655 complex against Candida albicans in ovariectomized female CD rats (weighing 150-170 g, obtained from Charles River 7 days after surgery) was determined. Candida albicans L145 was grown overnight in Sabouraud dextrose broth (Difco) at 30° C. The culture was centrifuged at 6000 r.p.m. for 20 min at 4° C., the yeast was resuspended in nutrient broth N.2 (Oxoid) containing 15% (v/v) glycerol and stored at -80° C. After 7 days of acclimatization in a temperature and humidity controlled room, the animals received 4 mg of estradiol benzoate (Sigma) subcutaneously. Four days later they were infected by intravaginal (i.va.) instillation with 0.025 ml of thawed Candida albicans suspension (about 5×10^6 cfu/rat).
GE1655 complex and miconazole (Sigma) were dissolved in dimethylsulfoxide (DMSO) and then diluted 1:10 with PEG 400; this risulted in homogeneous suspensions. Animals received 0.1 ml of one of these suspensions i.va. twice daily for three days starting 24 h after the infection. Control animals were treated with the vehicle (10% DMSO in PEG 400).
The presence of Candida was determined by inserting a disposable 0.01 ml calibrated loop into the vagina. The sample was resuspended in 0.2 ml of sterile peptonized saline and cultivated on Sabouraud dextrose agar containing 100 mg/l of rifampicin to inhibit growth of bacterial contaminants.

Clc1ccc(COC(Cn2ccnc2)c2ccc(Cl)cc2Cl)c(Cl)c1 (stereo not drawn) [Miconazole, miconazole]
vaginal load compared with the control group (2 experiments, 10 mg of GE1655 complex or 4 mg of miconazole): significantly lower (p<0.01)
Mean log10 cfu ± SD/sample (exp. 1): 1.20 ± 1.01 log10 cfu/sample
Mean log10 cfu ± SD/sample (exp. 2): 1.24 ± 0.86 log10 cfu/sample
